Test results reported in PubChem BioAssay AID1963958 (Molecular Pharmacology Branch, DTP, NCI, 2024).

Test system: MDA-MB-231 multicell spheroids, viability
Assay: Anticancer human tumor MDA-MB-231 cell line growth inhibition [PI3K];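 further: spheroids exposed to agents for seven days before reading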;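 on viability, T/C: percent of vehicle control luminescence with DMSO treated spheroids as 100%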
Details: for IC50: curve of first compound; for viability, T/C: stronger effect = lower value
Source text: Combinatorial screen of targeted agents with the PI3K inhibitors inavolisib, alpelisib, duvelisib, and copanlisib in multi-cell type tumor spheroids
A high-throughput screen of multi-cell type tumor spheroids was designed to identify active combinations of targeted small molecules and PI3K pathway inhibitors. Complex spheroids include a stromal component modeled by human endothelial cells (HUVEC) and fibroblasts modeled by human mesenchymal stem cells (MSCs). The concentration ranges selected for each drug and investigational agent were based upon clinically achievable concentrations if the clinical Cmax of the agent was known.
Compounds. The drugs and investigational agents: inavolisib (NSC800729), alpelisib (NSC765974), duvelisib (NSC772469), copanlisib (NSC816437), ipatasertib (NSC767898), afuresertib (NSC778305), talazoparib (NSC767125), sapanisertib (NSC764658), selumetinib (NSC741078), tovorafenib (DAY101, NSC766906), vemurafenib (NSC761431), ravoxertinib (NSC781343), sotorasib (NSC818433), MRTX1133 (NSC 836407), abemaciclib (NSC 768073), palbociclib (NSC758247), venetoclax (NSC 766270), SY5609 (NSC837396), enzalutamide (NSC755605), and darolutamide (NSC825331), were obtained from the National Cancer Institute (NCI) Developmental Therapeutics Program Chemical Repository. The FDA-approved anticancer drug set is available from the NCI Developmental Therapeutics Program. […] The stock solutions were prepared in dimethyl sulfoxide (DMSO, Sigma-Aldrich, St. Louis, MO, cat. D2650) at 800-fold the tested concentration and stored at -70 degrees C prior to their use. All drugs and investigational agents were tested over a range starting from a high concentration at or near the clinical Cmax and decreasing in half-log increments. If the clinical Cmax for an agent had not been determined, the highest concentration tested was 10 microM.
Cell Culture. All cells were maintained in an incubator at 37 degrees C and 5% CO2 with 95% humidity. The PDC lines were cultured according to standard operating procedures established by the NCI PDMR (https://pdmr.cancer.gov/sops/default.htm). All PDCs were thawed and cultured in Matrigel-coated flasks prepared with a working solution of 1X Ham's F-12 nutrient mix, without supplementation (Invitrogen, Waltham, MA, cat. 11765054), 100 U/mL penicillin-streptomycin (Invitrogen, cat. 15140122), and 2.5% Matrigel (Corning Inc., Corning, NY, cat. 354248) for the first three passages. The 354836-022-R-J1-PDC, 475296-252-R-J1-PDC, and 997726-040-R-J2-PDC lines were cultured in 6A media, which includes advanced DMEM/F-12 (Thermo Fisher Scientific, cat. 12634028), 10 mM HEPES (Thermo Fisher Scientific, cat. 15630080), 1X GlutaMAX supplement (Thermo Fisher Scientific, cat. 35050061), 0.1 mg/mL primocin (InvivoGen, San Diego, CA, cat. ant-pm-2), 10% defined fetal bovine serum, heat inactivated (HyClone Laboratories Inc., Logan, UT, cat. SH30070.03HI), 50% L-WRN conditioned media (ATCC, cat. CRL-3276), 1.25 mM N-Acetyl-L-cysteine (Sigma-Aldrich, cat. A9165), 10 mM nicotinamide (Sigma-Aldrich, cat. N0636), 1X B-27 supplement (Thermo Fisher Scientific, cat. 17504044), 1X N-2 supplement (Thermo Fisher Scientific, cat. 17502048), and 10 microM Y-27632 dihydrochloride (Tocris Bioscience, Bristol, United Kingdom, cat. 1254). The 624824-186-R-J2-PDC line was cultured in 6C/Colon 1B media, which includes all 6A media components plus 50 ng/mL human EGF recombinant protein (Thermo Fisher Scientific, cat. PHG0311). […]

**Q.** Which IC50 (second compound 0.00316 µM) does the source give for `CC(C)n1nc(-c2ccc3oc(N)nc3c2)c2c(N)ncnc21` + CC(Nc1ccc2c(c1)OCCn1cc(N3C(=O)OCC3C(F)F)nc1-2)C(N)=O here?
**A.** 34.9 nM

**Q.** And the IC50 (second compound 0.01 µM)?
**A.** 27.5 nM

**Q.** And the IC50 (second compound 0.0316 µM)?
**A.** 12.8 nM

**Q.** What about the IC50 (second compound 0.1 µM) of the same molecule?
**A.** 5.12 nM

**Q.** And the IC50 (second compound 0.316 µM)?
**A.** 3.46 nM

**Q.** And the IC50 (second compound 1 µM)?
**A.** 2.13 nM

**Q.** And the viability, T/C (second compound 0.00316 µM, first compound 0.000316 µM)?
**A.** 101%

**Q.** And the viability, T/C (second compound 0.00316 µM, first compound 0.001 µM)?
**A.** 92.6%

**Q.** What about the viability, T/C (second compound 0.00316 µM, first compound 0.00316 µM) of the same molecule?
**A.** 94.5%

**Q.** What about the viability, T/C (second compound 0.00316 µM, first compound 0.01 µM) of the same molecule?
**A.** 77.4%

**Q.** And the viability, T/C (second compound 0.00316 µM, first compound 0.0316 µM)?
**A.** 51.8%

**Q.** And the viability, T/C (second compound 0.00316 µM, first compound 0.1 µM)?
**A.** 31.5%

**Q.** What about the viability, T/C (second compound 0.01 µM, first compound 0.000316 µM) of the same molecule?
**A.** 89.1%

**Q.** And the viability, T/C (second compound 0.01 µM, first compound 0.001 µM)?
**A.** 93.7%

**Q.** And the viability, T/C (second compound 0.01 µM, first compound 0.00316 µM)?
**A.** 89%

**Q.** What about the viability, T/C (second compound 0.01 µM, first compound 0.01 µM) of the same molecule?
**A.** 66%

**Q.** And the viability, T/C (second compound 0.01 µM, first compound 0.0316 µM)?
**A.** 50%

**Q.** And the viability, T/C (second compound 0.01 µM, first compound 0.1 µM)?
**A.** 30.5%

**Q.** And the viability, T/C (second compound 0.0316 µM, first compound 0.000316 µM)?
**A.** 81%

**Q.** What about the viability, T/C (second compound 0.0316 µM, first compound 0.001 µM) of the same molecule?
**A.** 74.6%

**Q.** And the viability, T/C (second compound 0.0316 µM, first compound 0.00316 µM)?
**A.** 65.4%

**Q.** What about the viability, T/C (second compound 0.0316 µM, first compound 0.01 µM) of the same molecule?
**A.** 54.2%

**Q.** What about the viability, T/C (second compound 0.0316 µM, first compound 0.0316 µM) of the same molecule?
**A.** 37.7%

**Q.** What about the viability, T/C (second compound 0.0316 µM, first compound 0.1 µM) of the same molecule?
**A.** 25.5%

**Q.** And the viability, T/C (second compound 0.1 µM, first compound 0.000316 µM)?
**A.** 68.6%

**Q.** And the viability, T/C (second compound 0.1 µM, first compound 0.001 µM)?
**A.** 63%

**Q.** And the viability, T/C (second compound 0.1 µM, first compound 0.00316 µM)?
**A.** 55.2%

**Q.** What about the viability, T/C (second compound 0.1 µM, first compound 0.01 µM) of the same molecule?
**A.** 42.7%

**Q.** And the viability, T/C (second compound 0.1 µM, first compound 0.0316 µM)?
**A.** 33.2%

**Q.** What about the viability, T/C (second compound 0.1 µM, first compound 0.1 µM) of the same molecule?
**A.** 21.3%

**Q.** And the viability, T/C (second compound 0.316 µM, first compound 0.000316 µM)?
**A.** 65.3%

**Q.** What about the viability, T/C (second compound 0.316 µM, first compound 0.001 µM) of the same molecule?
**A.** 60.2%

**Q.** What about the viability, T/C (second compound 0.316 µM, first compound 0.00316 µM) of the same molecule?
**A.** 49.5%

**Q.** What about the viability, T/C (second compound 0.316 µM, first compound 0.01 µM) of the same molecule?
**A.** 41.7%

**Q.** And the viability, T/C (second compound 0.316 µM, first compound 0.0316 µM)?
**A.** 28.5%

**Q.** And the viability, T/C (second compound 0.316 µM, first compound 0.1 µM)?
**A.** 19.9%

**Q.** And the viability, T/C (second compound 1 µM, first compound 0.000316 µM)?
**A.** 58.8%

**Q.** And the viability, T/C (second compound 1 µM, first compound 0.001 µM)?
**A.** 54.7%

**Q.** And the viability, T/C (second compound 1 µM, first compound 0.00316 µM)?
**A.** 48.3%

**Q.** And the viability, T/C (second compound 1 µM, first compound 0.01 µM)?
**A.** 36.6%

**Q.** And the viability, T/C (second compound 1 µM, first compound 0.0316 µM)?
**A.** 27.9%

**Q.** And the viability, T/C (second compound 1 µM, first compound 0.1 µM)?
**A.** 17.3%
